molecular target: T1, human SGLT2 (Homo sapiens, UniProt P31639, I433V); test: Assay for inhibitory effect on human SGLT2 activity (uptake of methyl-α-D-glucopyranoside in COS-7 cells expressing transiently human SGLT2); type: cell-based; settings: methyl-α-D-(U-14C)glucopyranoside uptake, 37° C., 2 hours, read-out: IC50 (concentration at which 50% of methyl-α-D-glucopyranoside uptake was inhibited)
T1 construct: expressed in transfected cells; host or cells: COS-7 cells (RIKEN CELL BANK RCB0539), transient electroporation with plasmid KL29
T1 sequence (P31639 1-672 I433V): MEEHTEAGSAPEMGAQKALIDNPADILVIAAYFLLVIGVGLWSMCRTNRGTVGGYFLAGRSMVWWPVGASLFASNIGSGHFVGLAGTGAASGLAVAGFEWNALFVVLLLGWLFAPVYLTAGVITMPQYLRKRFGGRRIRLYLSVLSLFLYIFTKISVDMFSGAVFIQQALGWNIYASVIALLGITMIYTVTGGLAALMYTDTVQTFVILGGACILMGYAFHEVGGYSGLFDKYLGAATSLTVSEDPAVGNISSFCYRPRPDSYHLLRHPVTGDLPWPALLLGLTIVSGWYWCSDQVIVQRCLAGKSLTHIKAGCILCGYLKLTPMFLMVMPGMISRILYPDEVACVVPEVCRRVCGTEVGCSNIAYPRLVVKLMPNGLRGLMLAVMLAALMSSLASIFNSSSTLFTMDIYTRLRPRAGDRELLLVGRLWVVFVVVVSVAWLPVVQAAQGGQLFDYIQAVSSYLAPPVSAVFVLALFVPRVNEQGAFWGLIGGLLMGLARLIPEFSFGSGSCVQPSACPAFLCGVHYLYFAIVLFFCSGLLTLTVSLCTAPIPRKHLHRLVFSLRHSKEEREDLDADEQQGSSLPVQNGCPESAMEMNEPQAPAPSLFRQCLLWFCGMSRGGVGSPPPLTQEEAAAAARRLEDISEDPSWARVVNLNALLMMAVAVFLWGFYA
Procedure: Assay for Inhibitory Effect on Human SGLT2 Activity
1) Construction of the Plasmid Vector Expressing Human SGLT2
Preparation of the cDNA library for PCR amplification was performed by reverse transcription of a total RNA deprived from human kidney (Ori gene) with oligo dT as the primer, using SUPERSCRIPT Preamplification System (Gibco-BRL: LIFE TECHNOLOGIES). The DNA fragment coding for human SGLT2 was amplified by the PCR reaction using Pfu DNA Polymerase (made by Stratagene), in which the human kidney cDNA library described above was used as the template and the following oligo nucleotides 0702F and 0712R, presented as Sequence Numbers 1 and 2 respectively, were used as the primers. The amplified DNA fragment was ligated into pCR-Blunt (Invitrogen), a vector for cloning, according to standard method of the kit. The Escherichia coli HB101 Competent Cell (made by TOYOBO Co., Ltd.) was transformed according to usual method and then selection of the transformants was performed on the LB agar medium containing 50 μg/mL of kanamycin. After plasmid DNA was extracted and purified from the one of the transformants, amplifying of the DNA fragment coding for human SGLT2 was performed by the PCR reaction using Pfu DNA Polymerase (made by Stratagene), in which the following oligo nucleotides 0714F and 0715R, presented as Sequence Numbers 3 and 4 respectively, were used as the primers. The amplified DNA fragment was digested with restriction enzymes, Xho I and Hind III, and then purified with Wizard Purification System (Promega). This purified DNA fragment was inserted at the corresponding restriction sites of pcDNA3.1 (−) Myc/His—A (Invitrogen), avector for expressing of fusion protein. The Escherichia coli HB101 Competent Cell (made by TOYOBO Co., Ltd.) was transformed according to usual method and then selection of the transformant was performed on the LB agar medium containing 100 μg/mL of ampicillin. After plasmid DNA was extracted and purified from this transformant, the base sequence of the DNA fragment inserted at the multi-cloning sites of the vector pcDNA3.1 (−) Myc/His—A was analyzed. […] Sequentially, a clone in which valine is substituted for isoleucine-433 was obtained. This plasmid-vector expressing human SGLT2 in which the peptide presented as Sequence Number 5 is fused to the carboxyl terminal alanine residue was designated KL29.
2) Preparation of the Cells Expressing Transiently Human SGLT2
KL29, the plasmid coding human SGLT2, was transfected into COS-7 cells (RIKEN CELL BANK RCB0539) by electroporation. Electroporation was performed with GENE PULSER II (Bio-Rad Laboratories) under the condition: 0.290 kV, 975 μF, 2×10^6 cells of COS-7 cell and 20 μg of KL29 in 500 μL of OPTI-MEM I medium (Gibco-BRL: LIFE TECHNOLOGIES) in the 0.4 cm type cuvette. […]

Compound | IC50
CCc1ccc(Cc2c(C)cc(C)nc2O[C@@H]2O[C@H](CO)[C@@H](O)[C@H](O)[C@H]2O)cc1 [Example 18, 3-(4-Ethylbenzyl)-2-(β-D-glucopyranosyloxy)-4,6-dimethyl-pyridine] | 41 nM
Cc1cc(C)c(Cc2ccc(CCO)cc2)c(O[C@@H]2O[C@H](CO)[C@@H](O)[C@H](O)[C@H]2O)n1 [Example 20, 2-(β-D-Glucopyranosyloxy)-3-[4-(2-hydroxyethyl)benzyl]-4,6-dimethylpyridine] | 45 nM
COc1ccc(Cc2c(C)cc(C)nc2O[C@@H]2O[C@H](CO)[C@@H](O)[C@H](O)[C@H]2O)cc1 [Example 19, 2-(β-D-Glucopyranosyloxy)-3-(4-methoxybenzyl)-4,6-dimethyl-pyridine] | 45 nM
COc1ccc(Cc2c(C)cc(OC)nc2O[C@@H]2O[C@H](CO)[C@@H](O)[C@H](O)[C@H]2O)cc1 [Example 21, 2-(β-D-Glucopyranosyloxy)-6-methoxy-3-(4-methoxybenzyl)-4-methylpyridine] | 55 nM

— patent US7271153B2, “Nitrogenous heterocyclic derivatives, medicinal compositions containing the same, medicinal uses thereof, and intermediates therefor” (Kissei Pharmaceutical Co., Ltd., priority 2001, dated 2007)
